The target of assay [1] is ATP-dependent Clp protease proteolytic subunit, mitochondrial (Homo sapiens, UniProt Q16740). Kind of assay: Agonist activity at human recombinant CLpP (57 to 277 amino acids) expressed in Escherichia coli using fluorogenic peptide AC-WLA-AMC as substrate incubated for 10 mins by fluorescence based assay.
For assay [2], the target named is T1, Proteasome subunit beta type-5 (Homo sapiens, UniProt P28074).
T1 sequence (P28074 whole entry): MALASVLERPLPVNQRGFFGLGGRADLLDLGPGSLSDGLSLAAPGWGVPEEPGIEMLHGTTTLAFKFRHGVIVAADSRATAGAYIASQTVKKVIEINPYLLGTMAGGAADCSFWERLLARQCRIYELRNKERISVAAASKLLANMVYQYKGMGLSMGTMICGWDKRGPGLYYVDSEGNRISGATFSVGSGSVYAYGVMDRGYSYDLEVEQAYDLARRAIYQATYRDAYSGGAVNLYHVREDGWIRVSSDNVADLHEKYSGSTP
Briefly: Inhibition of beta5 proteasome (unknown origin).

Assay [3] concerns the target T2, Proteasome subunit beta type-7 (Homo sapiens, UniProt Q99436).
T2 sequence (Q99436 whole entry): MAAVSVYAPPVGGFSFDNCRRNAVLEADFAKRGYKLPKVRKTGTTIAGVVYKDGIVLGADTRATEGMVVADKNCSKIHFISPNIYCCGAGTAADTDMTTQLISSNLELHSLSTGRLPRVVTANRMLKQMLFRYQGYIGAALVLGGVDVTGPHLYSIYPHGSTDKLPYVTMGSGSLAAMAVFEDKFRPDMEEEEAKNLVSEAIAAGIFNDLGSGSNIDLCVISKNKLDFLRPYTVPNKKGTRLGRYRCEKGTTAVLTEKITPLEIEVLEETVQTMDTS
Briefly: Inhibition of beta2 proteasome (unknown origin).

The next assay addresses T3, Cathepsin K (Homo sapiens, UniProt P43235).
T3 sequence (P43235 whole entry): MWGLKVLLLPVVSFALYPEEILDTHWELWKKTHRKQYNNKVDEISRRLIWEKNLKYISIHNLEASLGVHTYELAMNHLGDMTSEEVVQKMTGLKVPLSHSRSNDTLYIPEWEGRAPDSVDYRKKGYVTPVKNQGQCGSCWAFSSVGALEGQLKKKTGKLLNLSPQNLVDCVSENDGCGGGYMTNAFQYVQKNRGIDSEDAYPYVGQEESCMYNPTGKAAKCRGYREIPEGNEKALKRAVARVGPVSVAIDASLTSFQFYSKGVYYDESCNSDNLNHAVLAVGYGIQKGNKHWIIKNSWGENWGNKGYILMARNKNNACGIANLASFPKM
Kind of assay: Inhibition of human cathepsin K.

Assay [4] deals with T4, Procathepsin L (Homo sapiens, UniProt P07711). Briefly: Inhibition of human cathepsin L.
T4 sequence (P07711 whole entry): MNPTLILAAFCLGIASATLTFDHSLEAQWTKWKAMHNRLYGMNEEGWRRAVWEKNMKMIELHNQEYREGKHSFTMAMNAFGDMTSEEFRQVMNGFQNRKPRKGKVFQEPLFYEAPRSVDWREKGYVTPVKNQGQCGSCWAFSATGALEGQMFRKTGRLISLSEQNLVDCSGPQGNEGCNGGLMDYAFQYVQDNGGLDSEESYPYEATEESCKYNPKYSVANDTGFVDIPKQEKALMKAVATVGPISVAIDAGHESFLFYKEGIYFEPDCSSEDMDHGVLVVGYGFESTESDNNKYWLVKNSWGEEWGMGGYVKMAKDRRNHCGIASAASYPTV
Assay [5] has as its target Matrix metalloproteinase-9 (Homo sapiens, UniProt P14780). Briefly: Inhibition of MMP-9 (unknown origin).
The target of assay [6] is 72 kDa type IV collagenase (Homo sapiens, UniProt P08253). Briefly: Inhibition of MMP-2 (unknown origin).
Sequence of 72 kDa type IV collagenase (P08253 whole entry): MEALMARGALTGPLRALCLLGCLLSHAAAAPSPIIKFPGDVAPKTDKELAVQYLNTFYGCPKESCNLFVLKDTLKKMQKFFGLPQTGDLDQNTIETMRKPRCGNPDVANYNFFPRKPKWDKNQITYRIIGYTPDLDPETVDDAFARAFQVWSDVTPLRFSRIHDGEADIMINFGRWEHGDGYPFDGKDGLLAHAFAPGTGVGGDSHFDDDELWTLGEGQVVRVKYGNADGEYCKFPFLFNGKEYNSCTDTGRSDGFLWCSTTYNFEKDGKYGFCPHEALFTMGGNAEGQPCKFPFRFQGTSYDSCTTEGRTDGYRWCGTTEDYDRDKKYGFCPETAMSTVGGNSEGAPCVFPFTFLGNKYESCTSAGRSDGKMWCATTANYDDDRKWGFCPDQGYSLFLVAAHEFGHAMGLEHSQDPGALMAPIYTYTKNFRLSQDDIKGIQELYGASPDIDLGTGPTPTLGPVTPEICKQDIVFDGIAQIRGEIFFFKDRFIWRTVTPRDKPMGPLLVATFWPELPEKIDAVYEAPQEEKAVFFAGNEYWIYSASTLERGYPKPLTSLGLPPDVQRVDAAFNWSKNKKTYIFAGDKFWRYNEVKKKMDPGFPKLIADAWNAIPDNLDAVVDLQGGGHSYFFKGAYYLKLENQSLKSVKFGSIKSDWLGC
The target in assay [7] is T5, Proteasome subunit beta type-1 (Homo sapiens, UniProt P20618).
T5 sequence (P20618 whole entry): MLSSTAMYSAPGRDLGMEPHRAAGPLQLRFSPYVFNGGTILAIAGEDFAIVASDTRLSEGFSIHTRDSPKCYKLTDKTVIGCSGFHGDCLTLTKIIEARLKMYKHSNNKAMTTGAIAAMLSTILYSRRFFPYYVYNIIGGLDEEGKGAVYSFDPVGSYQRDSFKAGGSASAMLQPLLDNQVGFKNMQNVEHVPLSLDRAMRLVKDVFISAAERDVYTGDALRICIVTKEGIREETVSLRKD
Kind of assay: Inhibition of beta 1 proteasome (unknown origin).

Assay [8] addresses T4, Procathepsin L. Kind of assay: Binding affinity to Cathepsin L (unknown origin) assessed as inhibition constant.

Peptide text beside a SMILES is read from it. * marks the point of attachment. Cbz = O=C(OCc1ccccc1)*

Sequence of ATP-dependent Clp protease proteolytic subunit, mitochondrial (Q16740 whole entry, the tested form may be a part): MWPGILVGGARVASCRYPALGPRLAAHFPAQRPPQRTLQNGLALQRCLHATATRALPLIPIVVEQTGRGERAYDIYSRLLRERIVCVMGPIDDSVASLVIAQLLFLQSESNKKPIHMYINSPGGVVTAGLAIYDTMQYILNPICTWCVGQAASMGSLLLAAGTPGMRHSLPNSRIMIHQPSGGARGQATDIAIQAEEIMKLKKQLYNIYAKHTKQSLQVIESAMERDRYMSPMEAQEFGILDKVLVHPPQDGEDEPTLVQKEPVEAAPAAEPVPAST
Sequence of Matrix metalloproteinase-9 (P14780 whole entry): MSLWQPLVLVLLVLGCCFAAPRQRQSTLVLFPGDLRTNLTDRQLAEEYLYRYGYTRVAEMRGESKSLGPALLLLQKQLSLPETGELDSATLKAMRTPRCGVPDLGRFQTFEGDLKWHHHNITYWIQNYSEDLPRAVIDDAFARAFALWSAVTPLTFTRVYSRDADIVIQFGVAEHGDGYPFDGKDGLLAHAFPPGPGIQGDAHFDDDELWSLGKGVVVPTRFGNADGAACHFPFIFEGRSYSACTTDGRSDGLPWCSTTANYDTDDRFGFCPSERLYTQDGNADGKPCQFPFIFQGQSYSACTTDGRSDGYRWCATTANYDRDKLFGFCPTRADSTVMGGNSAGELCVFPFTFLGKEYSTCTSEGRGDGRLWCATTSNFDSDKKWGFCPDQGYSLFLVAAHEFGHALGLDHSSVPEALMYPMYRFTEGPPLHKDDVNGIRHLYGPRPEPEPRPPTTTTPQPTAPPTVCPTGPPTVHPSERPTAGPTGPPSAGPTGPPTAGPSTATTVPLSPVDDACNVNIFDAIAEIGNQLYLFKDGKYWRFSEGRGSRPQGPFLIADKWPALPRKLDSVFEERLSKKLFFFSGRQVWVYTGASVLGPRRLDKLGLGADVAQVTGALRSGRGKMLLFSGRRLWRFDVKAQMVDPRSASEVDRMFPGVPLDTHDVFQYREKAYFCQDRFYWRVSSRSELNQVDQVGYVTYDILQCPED

Regarding `Cn1c2c(c(=O)n(Cc3ccc(Cl)cc3)c1=O)CN(Cc1cccc(C#N)c1)CC2`, in assay [1], the EC50 worked out at 135 nM.

Regarding `N#Cc1cccc(CN2CCC3=C(C2)C(=O)N(Cc2ccc(Cl)cc2)C2=NCCN23)c1`, the EC50 in assay [1] amounted to 120 nM.

As a reminder, the IC50 is the point on the concentration scale where inhibition reaches its midpoint. High values mean weaker potency, low ones greater potency. Molecule `CC(C)C[C@H](NC(=O)[C@@H](NC(=O)c1cccc(-c2ccccc2)n1)[C@@H](C)O)B(O)O` [(R)-1-((2S,3R)-3-hydroxy-2-(6-phenylpicolinamido)butanamido)-3-methylbutylboronic acid] had an IC50 in assay [2] of 1.5 nM. In other words, the single-digit nanomolar range.

`CC(C)C[C@@H](C=O)NC(=O)[C@H](CC(C)C)NC(=O)[C@H](CC(C)C)NC(=O)OCc1ccccc1` [{1-[(S)-(S)-1-((S)-1-Formyl-3-methyl-butylcarbamoyl)-3-methyl-butylcarbamoyl]-3-methyl-butyl}-carbamic acid benzyl ester] (Cbz-Leu-Leu-Leu-aldehyde) yielded a concentration for half-maximal inhibition (IC50) in assay [3] of 1080 nM.

As for `N#CN1CC(CNC(=O)C2CCCCC2)C1` [Cyclohexanecarboxylic acid (1-cyano-azetidin-3-ylmethyl)-amide], the IC50 against Cathepsin K was 5 nM; against Procathepsin L [4] it was 6 nM.

Take `CC(C)C[C@H](NC(=O)CNC(=O)c1cc(Cl)ccc1Cl)B(O)O`: half-maximal inhibition in assay [3] (IC50) was put at 3500 nM.

As to `CCc1ccc(C#Cc2ccc(S(=O)(=O)N[C@H](C(=O)O)C(C)C)s2)cc1`, the IC50 was determined as 4.4 nM in assay [5] and 4.8 nM in assay [6].

Turning to `O=C1NC2([C@@H](O)[C@@H]3C=CCCC3)C(=O)O[C@H]2[C@H]1CCCl` (some centres not stated), the IC50 was determined as 2.6 nM in [2], 8 nM in assay [3] and 33 nM in [7].

In the case of `C#Cc1cccc(CN2CCC3=C(C2)C(=O)N(Cc2ccc(C)cc2)C2=NCCN23)c1`, the EC50 in assay [1] came to 800 nM.

For `Cc1cccc(CN2CCc3c(c(=O)n(Cc4ccc(C(F)(F)F)cc4)c(=O)n3CCCN)C2)c1`, the EC50 in [1] is 120 nM.

For the molecule `O=C(c1ccccc1)c1ccc(S(=O)(=O)CC(CCCc2ccccc2)C(=O)NO)cc1` (configuration not stated) [2-(4-Benzoyl-benzenesulfonylmethyl)-5-phenyl-pentanoic acid hydroxyamide], the results for the IC50 in assay [5] and in assay [6] were 5 nM and 4 nM, respectively.

The Ki is a measure of affinity in units of concentration, obtained from inhibition or displacement. For the molecule `CC(C)C[C@H](NC(=O)OC(C)(C)C)C(=O)N1C[C@H]1C(=O)N1[C@H](C(=O)OCc2ccccc2)[C@@H]1C(=O)OCc1ccccc1`, on Procathepsin L [8], the Ki was determined as 13 nM.

Regarding `CC(C)N1CCN(C2(c3ccc(Oc4ccc(Br)cc4)cc3)C(=O)NC(=O)NC2=O)CC1` [5-[4-(4-Bromo-phenoxy)-phenyl]-5-(4-isopropyl-piperazin-1-yl)-pyrimidine-2,4,6-trione], the half-maximal inhibitory concentration (IC50) in assay [5] came to 1 nM; in assay [6], 26 nM.

For the molecule `CCN([C@@H](C(=O)O)C(C)C)S(=O)(=O)c1ccc(-c2nc(-c3ccc(C)s3)no2)cc1`, the half-maximal inhibitory concentration (IC50) is 36 nM in assay [5] and 3.7 nM in assay [6].

Consider `N#Cc1cccc(CN2CCC3=C(C2)C(=O)N(Cc2ccc(C(F)(F)F)cc2)C2=NCCN23)c1`, for which, in assay [1], the EC50 is 120 nM.

`CC(C)[C@H](O)C12NC(=O)[C@H](C)[C@@H]1OC2=O` (some centres not stated): the half-maximal inhibitory concentration (IC50) in assay [2] turned out to be 47 nM.

With `COc1ccc(-c2ccc(S(=O)(=O)N(OC(C)C)[C@H](CCC3C(=O)c4ccccc4C3=O)C(=O)NO)cc2)cc1`, the half-inhibitory concentration (IC50) in assay [5] came to 0.43 nM; in assay [6], 0.67 nM.

Take `COc1ccc(S(=O)(=O)N(Cc2cccnc2)[C@@H](CCF)C(=O)NO)cc1`: the results for the IC50 in assay [5] and in assay [6] were 3 nM and 33 nM, respectively.

(Values after BindingDB's records for doi:10.1021/jm00213a022 (Sichuan University, 2021).)
